Target: T1, human 11βHSD1 enzyme (Homo sapiens, UniProt P28845)
T1 construct: baculovirus expressed N terminal 6-His tagged full length human 11βHSD1 enzyme; 6-His (N); made in house
Experiment: 11βHSD1 cortisone to cortisol conversion, competitive HTRF assay
Assay type: biochemical
Conditions: human 11-βHSD; test concentration of 30 μM of compound
How it was run: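 Enzyme was baculovirus-expressed, N-terminal 6-His-tagged full-length human 11βHSD1, purified on a copper chelate column. Compounds were added in buffer containing 1% DMSO at 10-fold final concentration.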

T1 sequence (P28845 whole entry): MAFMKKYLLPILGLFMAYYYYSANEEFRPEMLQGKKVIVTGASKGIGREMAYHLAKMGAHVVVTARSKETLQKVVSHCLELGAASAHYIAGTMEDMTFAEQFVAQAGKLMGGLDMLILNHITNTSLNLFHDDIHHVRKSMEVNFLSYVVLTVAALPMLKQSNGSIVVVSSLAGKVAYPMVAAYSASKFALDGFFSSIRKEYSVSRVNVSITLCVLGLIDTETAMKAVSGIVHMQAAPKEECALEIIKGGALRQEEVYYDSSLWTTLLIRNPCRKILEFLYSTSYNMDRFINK

## O=C(NC1C2CC3CC1CC(O)(C3)C2)c1cnc(N2C[C@@H]3C[C@H]2CO3)nc1C1CCC1 (stereo partly drawn) [Example 103, 4-cyclobutyl-N-[(2r,5s)-5-hydroxyadamantan-2-yl]-2-[(1S,4S)-2-oxa-5-azabicyclo[2.2.1]hept-5-yl]pyrimidine-5-carboxamide]
  inhibition at 30 µM: 95.7%

## O=C(N[C@H]1C2CC3CC1C[C@@](O)(C3)C2)c1cnc(NC2COC2)nc1C1CCC1 [Example 104, 4-cyclobutyl-N-[(2r,5s)-5-hydroxyadamantan-2-yl]-2-(oxetan-3-ylamino)pyrimidine-5-carboxamide]
  inhibition at 30 µM: 99.3%

## O=C(N[C@H]1C2CC3CC1C[C@@](O)(C3)C2)c1cnc(OC2CCCC2)nc1C1CCC1 [Example 106, 4-cyclobutyl-2-(cyclopentyloxy)-N-[(2r,5s)-5-hydroxyadamantan-2-yl]pyrimidine-5-carboxamide]
  inhibition at 30 µM: 101%

## CC(C)Oc1ncc(C(=O)N[C@H]2C3CC4CC2C[C@@](O)(C4)C3)c(C2CCC2)n1 [Example 107, 4-cyclobutyl-N-[(2r,5s)-5-hydroxyadamantan-2-yl]-2-isopropoxypyrimidine-5-carboxamide]
  inhibition at 30 µM: 97.3%

## O=C(N[C@H]1C2CC3CC1C[C@@](O)(C3)C2)c1cnc(OC2CCC2)nc1C1CCC1 [Example 108, 4-cyclobutyl-2-(cyclobutyloxy)-N-[(2r,5s)-5-hydroxyadamantan-2-yl]pyrimidine-5-carboxamide]
  inhibition at 30 µM: 96%

## O=C(N[C@H]1C2CC3CC1C[C@@](O)(C3)C2)c1cnc(OC2COC2)nc1C1CCC1 [Example 109, 4-cyclobutyl-N-[(2r,5s)-5-hydroxyadamantan-2-yl]-2-(oxetan-3-yloxy)pyrimidine-5-carboxamide]
  inhibition at 30 µM: 90.3%

## CC(C)Oc1ncc(C(=O)N[C@H]2C3CC4CC2C[C@@](O)(C4)C3)c(C2CCCC2)n1 [Example 110, 4-cyclopentyl-N-[(2r,5s)-5-hydroxyadamantan-2-yl]-2-propan-2-yloxypyrimidine-5-carboxamide]
  inhibition at 30 µM: 100%

## O=C(N[C@H]1C2CC3CC1C[C@@](O)(C3)C2)c1cnc(OC2CCC2)nc1C1CCCC1 [Example 111, 2-cyclobutyloxy-4-cyclopentyl-N-[(2r,5s)-5-hydroxyadamantan-2-yl]pyrimidine-5-carboxamide]
  inhibition at 30 µM: 108%

## O=C(N[C@H]1C2CC3CC1C[C@@](O)(C3)C2)c1cnc(OC2CCCC2)nc1C1CCCC1 [Example 112, 4-cyclopentyl-2-cyclopentyloxy-N-[(2r,Ss)-5-hydroxyadamantan-2-yl]pyrimidine-5-carboxamide]
  inhibition at 30 µM: 104%

## O=C(N[C@H]1C2CC3CC1C[C@@](O)(C3)C2)c1cnc(OC2COC2)nc1C1CCCC1 [Example 113, 4-cyclopentyl-N-[(2r,5s)-5-hydroxyadamantan-2-yl]-2-(oxetan-3-yloxy)pyrimidine-5-carboxamide]
  inhibition at 30 µM: 98.4%

## O=C(N[C@H]1C2CC3CC1C[C@@](O)(C3)C2)c1cnc(N2CCSCC2)nc1C1CCCC1 [Example 114, 4-Cyclopentyl-N-[(2s,5r)-5-hydroxyadamantan-2-yl]-2-thiomorpholin-4-ylpyrimidine-5-carboxamide]
  inhibition at 30 µM: 106%

## O=C(N[C@H]1C2CC3CC1C[C@@](O)(C3)C2)c1cnc(N2CC[S+]([O-])CC2)nc1C1CCCC1 [Example 115, 4-Cyclopentyl-N-[(2r,5 s)-5-hydroxyadamantan-2-yl]-2-(1-oxo-1,4-thiazinan-4-yl)pyrimidine-5-carboxamide]
  inhibition at 30 µM: 93.4%

## O=C(N[C@H]1C2CC3CC1C[C@@](O)(C3)C2)c1cnc(N2CCS(=O)(=O)CC2)nc1C1CCCC1 [Example 116, 4-Cyclopentyl-2-(1,1-dioxo-1,4-thiazinan-4-yl)-N-[(2r,5s)-5-hydroxyadamantan-2-yl]pyrimidine-5-carboxamide]
  inhibition at 30 µM: 98.1%

## COc1ncc(C(=O)N[C@H]2C3CC4CC2C[C@@](O)(C4)C3)c(C2CCCC2)n1 [Example 117, 4-cyclopentyl-N-[(2r,5s)-5-hydroxyadamantan-2-yl]-2-methoxypyrimidine-5-carboxamide]
  inhibition at 30 µM: 97.4%

## CNc1ncc(C(=O)N[C@H]2C3CC4CC2C[C@@](O)(C4)C3)c(C2CCCC2)n1 [Example 118, 4-cyclopentyl-N-[(2r,5s)-5-hydroxyadamantan-2-yl]-2-methylaminopyrimidine-5-carboxamide]
  inhibition at 30 µM: 93.7%

## O=C(N[C@H]1C2CC3CC1C[C@@](O)(C3)C2)c1cnc(N2C[C@@H]3C[C@H]2CO3)nc1C1CCCC1 [Example 120, 4-cyclopentyl-N-[(2r,5s)-5-hydroxyadamantan-2-yl]-2-[(1S,4S)-2-oxa-5-azabicyclo[2.2.1]heptan-5-yl]pyrimidine-5-carboxamide]
  inhibition at 30 µM: 101%

## CC(C)Nc1ncc(C(=O)N[C@H]2C3CC4CC2C[C@@](O)(C4)C3)c(C2CCCC2)n1 [Example 121, 4-cyclopentyl-N-[(2r,5s)-5-hydroxyadamantan-2-yl]-2-(propan-2-ylamino)pyrimidine-5-carboxamide]
  inhibition at 30 µM: 104%

## O=C(N[C@H]1C2CC3CC1C[C@@](O)(C3)C2)c1cnc(NC2CC2)nc1C1CCCC1 [Example 122, 4-cyclopentyl-2-(cyclopropylamino)-N-[(2r,5s)-5-hydroxyadamantan-2-yl]pyrimidine-5-carboxamide]
  inhibition at 30 µM: 97.5%

## C[C@H]1COCCN1c1ncc(C(=O)N[C@H]2C3CC4CC2C[C@@](O)(C4)C3)c(C2CCCC2)n1 [Example 123]
  inhibition at 30 µM: 99.1%

## COCCN1CCN(c2ncc(C(=O)N[C@H]3C4CC5CC3C[C@](O)(C5)C4)c(C3CCCC3)n2)CC1 [Example 125, 4-cyclopentyl-N-[(2r,5s)-5-hydroxyadamantan-2-yl]-2-[4-(2-methoxyethyl)piperazin-1-yl]pyrimidine-5-carboxamide]
  inhibition at 30 µM: 95%

## CC(=O)N1CCN(c2ncc(C(=O)N[C@H]3C4CC5CC3C[C@@](O)(C5)C4)c(C3CCCC3)n2)CC1 [Example 126, 2-(4-acetylpiperazin-1-yl)-4-cyclopentyl-N-[(2r,5s)-5-hydroxyadamantan-2-yl]pyrimidine-5-carboxamide]
  inhibition at 30 µM: 96.6%

## CC(C)N1CCN(c2ncc(C(=O)N[C@H]3C4CC5CC3C[C@@](O)(C5)C4)c(C3CCCC3)n2)CC1=O [Example 127, 4-cyclopentyl-N-[(2r,5s)-5-hydroxyadamantan-2-yl]-2-(3-oxo-4-propan-2-ylpiperazin-1-yl)pyrimidine-5-carboxamide]
  inhibition at 30 µM: 103%

## CN1CCN(c2ncc(C(=O)N[C@H]3C4CC5CC3C[C@@](O)(C5)C4)c(C3CCCC3)n2)CC1=O [Example 128, 4-cyclopentyl-N-[(2r,5s)-5-hydroxyadamantan-2-yl]-2-(4-methyl-3-oxopiperazin-1-yl)pyrimidine-5-carboxamide]
  inhibition at 30 µM: 99.1%

## O=C(N[C@H]1C2CC3CC1C[C@](O)(C3)C2)c1cnc(NC2CCC2)nc1C1CCCC1 [Example 129, 4-cyclopentyl-2-(cyclobutylamino)-N-[(2r,5s)-5-hydroxyadamantan-2-yl]pyrimidine-5-carboxamide]
  inhibition at 30 µM: 95.5%

## O=C(N[C@H]1C2CC3CC1C[C@](O)(C3)C2)c1cnc(NC2CCCC2)nc1C1CCCC1 [Example 130, 4-cyclopentyl-2-(cyclopentylamino)-N-[(2r,5s)-5-hydroxyadamantan-2-yl]pyrimidine-5-carboxamide]
  inhibition at 30 µM: 96.1%

## O=C(N[C@H]1C2CC3CC1C[C@@](O)(C3)C2)c1cnc(N2CCC2)nc1C1CCCC1 [Example 131, 2-(azetidin-1-yl)-4-cyclopentyl-N-[(2r,5s)-5-hydroxyadamantan-2-yl]pyrimidine-5-carboxamide]
  inhibition at 30 µM: 101%

## CN(C)c1ncc(C(=O)N[C@H]2C3CC4CC2C[C@@](O)(C4)C3)c(C2CCCC2)n1 [Example 133, 4-cyclopentyl-2-dimethylamino-N-[(2r,5s)-5-hydroxyadamantan-2-yl]pyrimidine-5-carboxamide]
  inhibition at 30 µM: 94%

## C[C@@H]1CN(c2ncc(C(=O)N[C@H]3C4CC5CC3C[C@](O)(C5)C4)c(C3CCCC3)n2)C[C@H](C)N1 [Example 134, 4-cyclopentyl-2-[(3S,5R)-3,5-dimethylpiperazin-1-yl]-N-[(2r,5s)-5-hydroxyadamantan-2-yl]pyrimidine-5-carboxamide]
  inhibition at 30 µM: 94.1%

## Nc1ncc(C(=O)N[C@H]2C3CC4CC2C[C@@](O)(C4)C3)c(C2CCCC2)n1 [Example 135, 2-amino-4-cyclopentyl-N-[(2r,5s)-5-hydroxyadamantan-2-yl]pyrimidine-5-carboxamide]
  inhibition at 30 µM: 100%

## O=C(N[C@H]1C2CC3CC1C[C@@](O)(C3)C2)c1cnc(N2CCOCC2CO)nc1C1CCCC1 (stereo partly shown) [Example 141, 4-cyclopentyl-N-[(2r,5s)-5-hydroxyadamantan-2-yl]-2-[3-(hydroxymethyl)morpholin-4-yl]pyrimidine-5-carboxamide]
  inhibition at 30 µM: 105%

## O=C(N[C@H]1C2CC3CC1C[C@@](O)(C3)C2)c1cnc(N[C@@H]2CCOC2)nc1C1CCCC1 [Example 142, 4-cyclopentyl-N-[(2r,5s)-5-hydroxyadamantan-2-yl]-2-[[(3R)-oxolan-3-yl]amino]pyrimidine-5-carboxamide]
  inhibition at 30 µM: 99.7%

## CS(=O)(=O)N1CCN(c2ncc(C(=O)N[C@H]3C4CC5CC3C[C@@](O)(C5)C4)c(C3CCCC3)n2)CC1 [Example 143, 4-cyclopentyl-N-[(2r,5s)-5-hydroxyadamantan-2-yl]-2-(4-methylsulfonylpiperazin-1-yl)pyrimidine-5-carboxamide]
  inhibition at 30 µM: 95%

## O=C(N[C@H]1C2CC3CC1C[C@@](O)(C3)C2)c1cnc(N[C@H]2CCOC2)nc1C1CCCC1 [Example 144, 4-cyclopentyl-N-[(2r,5s)-5-hydroxyadamantan-2-yl]-2-[[(3S)-oxolan-3-yl]amino]pyrimidine-5-carboxamide]
  inhibition at 30 µM: 98.8%

## O=C(N[C@H]1C2CC3CC1C[C@@](O)(C3)C2)c1cnc(N2CCOC(CO)C2)nc1C1CCCC1 (stereo partly shown) [Example 145, 4-cyclopentyl-N-[(2r,Ss)-5-hydroxyadamantan-2-yl]-2-[2-(hydroxymethyl)morpholin-4-yl]pyrimidine-5-carboxamide]
  inhibition at 30 µM: 92.9%
